For one series, the system named is male ICR mice. Description: Repeated-dose toxicity of nasal insulin formulations (10 days). The series is classed as in vivo, mouse. The following applies: intranasal once a day for 10 days (insulin 2 IU/kg). On the procedure:
The collected blood was centrifuged to isolate serum, and the isolated serum was analyzed using an automatic serum analyzer. […] From the organ tissue, paraffin sections were prepared, and then stained with H&E (Hematoxylin and Eosin). Histopathological examination of the stained tissues was performed using an optical microscope.

For series [1], the system named is nasal mucosal membrane (female BALB/c mice). Description: Penetration of OVA into nasal mucosal epithelial cells after intranasal OVA/TCTP-PTD 13 mixture (immunofluorescence). The series is classed as in vivo, mouse. The following applies: intranasal 10 μl, OVA 10 μM (4.5 μg), OVA:PTD 1:30, 15 minutes. On the procedure:
First, OVA and L-PTD 13 or D-PTD 13 were dissolved in PBS (phosphate buffered saline, pH 7.4) such that the concentrations of OVA and TCTP-PTD would be 10 μM and 300 μM, respectively, thereby preparing mixtures. Herein, OVA and TCTP-PTD were mixed at a molar ratio of 1:30.
Female BALB/c mice (6-8-week-old) were anesthetized by intraperitoneal injection of 50 mg/kg of zoletil and 10 mg/kg of xylazine.
10 μl of OVA, the OVA/D-PTD 13 mixture or the OVA/L-PTD 13 mixture was administered intranasally to each of the anesthetized mice. A control group was administered with 4.5 μg of OVA alone.
15 minutes after intranasal administration, the nasal tissue was collected. The collected nasal tissue was fixed with 10% formalin for about 24 hours, and then decalcified using 4 M formic acid at 4° C. for 30 hours. After decalcification, the nasal tissue was embedded in paraffin according to a conventional method, sectioned to a thickness of 5 μm, and attached to a slide. […] After incubation with the primary antibody, the slide was washed with PBS, and then incubated with a 1:100 dilution of secondary antibody (green fluorescence; Alexa 488-conjugated secondary antibodies, Invitrogen) at room temperature for 1 hour. The slide was washed with PBS, and then the nucleus was stained with DAPI (blue fluorescence), followed by observation with a fluorescence microscope.

Turning to `C[C@H](CCC(=O)NCCS(=O)(=O)[O-])[C@H]1CC[C@H]2[C@@H]3CC[C@@H]4C[C@H](O)CC[C@]4(C)[C@H]3C[C@H](O)[C@]12C.[Na+]` [sodium taurodeoxycholate], in the series with male ICR mice, the “histological evaluation of the nasal mucosal tissue” value was “destroyed”.
Turning to “ovalbumin [OVA (ovalbumin), 45 kDa, model antigen for vaccination]”, the “OVA fluorescence inside the nasal mucosal membrane” value in series [1] is recorded as “not substantially observed inside the nasal mucosal membrane”.

These data come from patent publication US10918727B2, “Peptide with ability to penetrate cell membrane” (ICURE BNP CO., LTD., priority 2016, dated 2021).
